Data on 20 compounds can be found in patent US20250228239A1, “MOLECULES HAVING PESTICIDAL UTILITY, AND INTERMEDIATES, COMPOSITIONS, AND PROCESSES, RELATED THERETO” (priority 2024, published 2025).

Like-named read-outs stand apart in the source and are kept apart here.

Assay [1] relates to Beet Armyworm (Spodoptera exigua, LAPHEG). Put plainly: Bioassays on Beet Armyworm (BAW), 128-well diet tray assay. It counts as in vivo. The conditions noted are these: Spodoptera exigua. The gist of the method:
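Percent larval mortality, averaged across eight wells, scored after five to seven days at 25° C. under 14:10 light-dark. Each well held one to five second instars feeding on diet dosed at 50 μg/cm^2 with compound from 90:10 acetone-water, solvent dried off.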

The test system of assay [2] is Cabbage Looper (Trichoplusia ni, TRIPNI). The assay is described as follows: Bioassays on Cabbage Looper (CL), 128-well diet tray assay. The assay is classed as in vivo. The conditions noted are these: Trichoplusia ni. An outline of the steps:
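One to five second-instar larvae per well on artificial diet surface-treated with 50 μg/cm^2 test molecule (applied in 90:10 acetone-water, dried). Held 5–7 days at 25° C, 14:10 light-dark; percent mortality recorded per well and averaged over eight wells.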

Setting [3] is: Beet Armyworm, rating class, read-out: BAW.
The mark [4] stands for this setting: Cabbage Looper, rating class, read-out: CL.
[5] abbreviates: Table ABC: Biological Results, species BAW, read-out: BAW.
The mark [6] stands for this setting: Table ABC: Biological Results, species CL, read-out: CL.
Where [7] appears, read: Beet Armyworm, Table ABC / ABC-DP rating, read-out: BAW rating.
Where [8] appears, read: Cabbage Looper, Table ABC / ABC-DP rating, read-out: CL rating.

As for `Cc1cc(NC(=O)[C@H]2[C@H](c3ccc(Cl)c(Cl)c3)C2(Cl)Cl)cc(C(=O)Nc2ccc(F)c(NC(=O)C(F)F)c2F)c1Cl` [F1484, 2-Chloro-5-((1R,3R)-2,2-dichloro-3-(3,4-dichlorophenyl)cyclopropane-1-carboxamido)-N-(3-(2,2-difluoroacetamido)-2,4-difluorophenyl)-3-methylbenzamide], the pest or weed control at 50 µg/cm2 in assay [1] (setting [3]) and in assay [2] (setting [4]) was 50 to 100% in each case.

Turning to `Nc1c(F)ccc(NC(=O)c2c(F)ccc(NC(=O)[C@H]3[C@H](c4ccc(F)c(Cl)c4)C3(Cl)Cl)c2F)c1F` (relative stereo) [F1111, trans-N-(3-Amino-2,4-difluorophenyl)-3-(2,2-dichloro-3-(3-chloro-4-fluorophenyl)cyclopropane-1-carboxamido)-2,6-difluorobenzamide], the pest or weed control at 50 µg/cm2 in assay [1] (setting [5]) and in assay [2] (setting [6]) was 50 to 100% each time.

Turning to `COC(=O)c1c(F)ccc(NC(=O)c2cc(NC(=O)[C@H]3[C@H](c4cc(Cl)cc(Cl)c4)C3(Cl)Cl)ccc2Cl)c1F` (relative stereo) [F1265, trans-Methyl 3-(2-chloro-5-(2,2-dichloro-3-(3,5-dichlorophenyl)cyclopropane-1-carboxamido)benzamido)-2,6-difluorobenzoate], the pest or weed control at 50 µg/cm2 in assay [1] (setting [5]) and in assay [2] (setting [6]) was 50 to 100% in each case.

`O=C(Nc1ccc(F)c(NC(=O)C2CCCO2)c1F)c1cc(NC(=O)[C@H]2[C@H](c3ccc(Cl)c(Cl)c3)C2(Cl)Cl)ccc1Cl` (stereo partly drawn) [F1611, N-(3-(2-Chloro-5-((1R,3R)-2,2-dichloro-3-(3,4-dichlorophenyl)cyclopropane-1-carboxamido)benzamido)-2,6-difluorophenyl)tetrahydrofuran-2-carboxamide]: the pest or weed control at 50 µg/cm2 in assay [1] (setting [3]) and in assay [2] (setting [4]) was 50 to 100% each time.

As to `Cc1cc(NC(=O)[C@H]2[C@H](c3ccc(F)c(C(F)(F)F)c3)C2(Cl)Cl)cc(C(=O)Nc2c(F)ccc(NC(=O)C(F)(F)F)c2F)c1Cl` [F1469, 2-Chloro-5-((1R,3R)-2,2-dichloro-3-(4-fluoro-3-(trifluoromethyl)phenyl)cyclopropane-1-carboxamido)-N-(2,6-difluoro-3-(2,2,2-trifluoroacetamido)phenyl)-3-methylbenzamide], the pest or weed control at 50 µg/cm2 in assay [1] (setting [3]) and in assay [2] (setting [4]) was 50 to 100% each time.

In the case of `COCCN(C(=O)OC(C)(C)C)c1ccc(NC(=O)c2cc(NC(=O)[C@H]3[C@H](c4cc(Cl)cc(Cl)c4)C3(Cl)Cl)ccc2Cl)c(C)c1` (relative stereo) [F1159, trans-tert-Butyl-(4-(2-chloro-5-(2,2-dichloro-3-(3,5-dichlorophenyl)cyclopropane-1-carboxamido)benzamido)-3-methylphenyl)(2-methoxyethyl)carbamate], the pest or weed control at 50 µg/cm2 in assay [1] (setting [5]) and in assay [2] (setting [6]) was 50 to 100% throughout.

On to `O=C(Nc1cc(NC(=O)C(F)F)c(F)cc1F)c1cc(NC(=O)[C@H]2[C@H](c3ccc(Cl)c(Cl)c3)C2(Cl)Cl)cc(F)c1F` [F1583, 5-((1R,3R)-2,2-Dichloro-3-(3,4-dichlorophenyl)cyclopropane-1-carboxamido)-N-(5-(2,2-difluoroacetamido)-2,4-difluorophenyl)-2,3-difluorobenzamide], for which the pest or weed control at 50 µg/cm2 in assay [1] (setting [3]) and in assay [2] (setting [4]) was 50 to 100% in each case.

`O=C(Nc1cc(NC(=O)C(F)F)c(F)cc1F)c1cc(NC(=O)[C@H]2[C@H](c3cc(Cl)c(Cl)c(Cl)c3)C2(Cl)Cl)cc(F)c1Cl` [F1404, 2-Chloro-5-((1R,3R)-2,2-dichloro-3-(3,4,5-trichlorophenyl)cyclopropane-1-carboxamido)-N-(5-(2,2-difluoroacetamido)-2,4-difluorophenyl)-3-fluorobenzamide]: the pest or weed control at 50 µg/cm2 in assay [1] (setting [3]) and in assay [2] (setting [4]) was 50 to 100% each time.

On to `Nc1cc(NC(=O)c2cc(NC(=O)[C@H]3[C@H](c4cc(Cl)c(Cl)c(Cl)c4)C3(Cl)Cl)cc(F)c2Cl)c(F)cc1F` [F1397, N-(5-Amino-2,4-difluorophenyl)-2-chloro-5-((1R,3R)-2,2-dichloro-3-(3,4,5-trichlorophenyl)cyclopropane-1-carboxamido)-3-fluorobenzamide], for which the pest or weed control at 50 µg/cm2 in assay [1] (setting [3]) and in assay [2] (setting [4]) was 50 to 100% in each case.

As for `Nc1c(F)ccc(NC(=O)c2cc(NC(=O)[C@H]3[C@H](c4ccc(Cl)c(Cl)c4)C3(Cl)Cl)ccc2F)c1F` [F1459, N-(3-Amino-2,4-difluorophenyl)-5-((1R,3R)-2,2-dichloro-3-(3,4-dichlorophenyl)cyclopropane-1-carboxamido)-2-fluorobenzamide], the pest or weed control at 50 µg/cm2 in assay [1] (setting [3]) and in assay [2] (setting [4]) was 50 to 100% in each case.

For `C=CCC(=O)Nc1c(F)ccc(NC(=O)c2cc(NC(=O)[C@H]3[C@H](c4ccc(F)c(Br)c4)C3(Cl)Cl)ccc2Cl)c1F` [F1880, 5-((1R,3R)-3-(3-Bromo-4-fluorophenyl)-2,2-dichlorocyclopropane-1-carboxamido)-N-(3-(but-3-enamido)-2,4-difluorophenyl)-2-chlorobenzamide], the pest or weed control at 50 µg/cm2 in assay [1] (setting [7]) and in assay [2] (setting [8]) was 50 to 100% in each case.

With `O=C(COCC(F)(F)F)Nc1c(F)ccc(NC(=O)c2cc(NC(=O)[C@H]3[C@H](c4ccc(F)c(C(F)(F)F)c4)C3(Cl)Cl)ccc2Cl)c1F` [F1846, 2-Chloro-5-((1R,3R)-2,2-dichloro-3-(4-fluoro-3-(trifluoromethyl)phenyl)cyclopropane-1-carboxamido)-N-(2,4-difluoro-3-(2-(2,2,2-trifluoroethoxy)acetamido)phenyl)benzamide], the pest or weed control at 50 µg/cm2 in assay [1] (setting [7]) and in assay [2] (setting [8]) was 50 to 100% throughout.

Turning to `O=C(Nc1c(F)ccc(NC(=O)C(F)(F)F)c1F)c1cc(NC(=O)[C@H]2[C@H](c3ccc(F)c(C(F)(F)F)c3)C2(Cl)Cl)cc(F)c1Cl` [F1346, 2-Chloro-5-((1R,3R)-2,2-dichloro-3-(4-fluoro-3-(trifluoromethyl)phenyl)cyclopropane-1-carboxamido)-N-(2,6-difluoro-3-(2,2,2-trifluoroacetamido)phenyl)-3-fluorobenzamide], the pest or weed control at 50 µg/cm2 in assay [1] (setting [5]) and in assay [2] (setting [6]) was 50 to 100% each time.

As to `O=C(Nc1c(F)ccc(NC(=O)c2cc(NC(=O)[C@H]3[C@H](c4ccc(F)c(C(F)(F)F)c4)C3(Cl)Cl)ccc2Cl)c1F)c1cc(C(F)(F)F)no1` [F1824, N-(3-(2-Chloro-5-((1R,3R)-2,2-dichloro-3-(4-fluoro-3-(trifluoromethyl)phenyl)cyclopropane-1-carboxamido)benzamido)-2,6-difluorophenyl)-3-(trifluoromethyl)isoxazole-5-carboxamide], the pest or weed control at 50 µg/cm2 in assay [1] (setting [7]) and in assay [2] (setting [8]) was 50 to 100% each time.

Consider `CC(=O)Nc1c(F)ccc(NC(=O)c2cc(NC(=O)[C@H]3[C@H](c4cc(Cl)cc(Cl)c4)C3(Cl)Cl)cc(F)c2Cl)c1F` [F1502, N-(3-Acetamido-2,4-difluorophenyl)-2-chloro-5-((1R,3R)-2,2-dichloro-3-(3,5-dichlorophenyl)cyclopropane-1-carboxamido)-3-fluorobenzamide], for which the pest or weed control at 50 µg/cm2 in assay [1] (setting [3]) and in assay [2] (setting [4]) was 50 to 100% each time.

Regarding `O=C(Nc1ccc(F)c(NC(=O)[C@H]2CCCN2)c1F)c1cc(NC(=O)[C@H]2[C@H](c3ccc(Cl)c(Cl)c3)C2(Cl)Cl)ccc1Cl` [F1663, (R)—N-(3-(2-Chloro-5-((1R,3R)-2,2-dichloro-3-(3,4-dichlorophenyl)cyclopropane-1-carboxamido)benzamido)-2,6-difluorophenyl)pyrrolidine-2-carboxamide], the pest or weed control at 50 µg/cm2 in assay [1] (setting [3]) and in assay [2] (setting [4]) was 50 to 100% each time.

For the compound `CC(=O)Nc1c(Cl)ccc(NC(=O)c2cc(NC(=O)[C@H]3[C@H](c4ccc(F)c(C(F)(F)F)c4)C3(Cl)Cl)ccc2Cl)c1Cl` [F1412, N-(3-Acetamido-2,4-dichlorophenyl)-2-chloro-5-((1R,3R)-2,2-dichloro-3-(4-fluoro-3-(trifluoromethyl)phenyl)cyclopropane-1-carboxamido)benzamide], the pest or weed control at 50 µg/cm2 in assay [1] (setting [3]) and in assay [2] (setting [4]) was 50 to 100% in each case.

In the case of `Nc1cc(NC(=O)c2cc(NC(=O)[C@H]3[C@H](c4ccc(F)c(Cl)c4)C3(Cl)Cl)cc(F)c2Cl)c(F)cc1F` [F1395, N-(5-Amino-2,4-difluorophenyl)-2-chloro-5-((1R,3R)-2,2-dichloro-3-(3-chloro-4-fluorophenyl)cyclopropane-1-carboxamido)-3-fluorobenzamide], the pest or weed control at 50 µg/cm2 in assay [1] (setting [3]) and in assay [2] (setting [4]) was 50 to 100% in each case.

Turning to `O=C(Nc1ccc(F)c(NC(=O)C(F)F)c1F)c1cc(NC(=O)[C@H]2[C@H](c3cc(Cl)c(Cl)c(Cl)c3)C2(Cl)Cl)cc(F)c1Cl` [F1335, 2-Chloro-5-((1R,3R)-2,2-dichloro-3-(3,4,5-trichlorophenyl)cyclopropane-1-carboxamido)-N-(3-(2,2-difluoroacetamido)-2,4-difluorophenyl)-3-fluorobenzamide], the pest or weed control at 50 µg/cm2 in assay [1] (setting [5]) and in assay [2] (setting [6]) was 50 to 100% in each case.

`Nc1ccc(F)c(NC(=O)c2cc(NC(=O)[C@H]3[C@H](c4ccc(F)c(C(F)(F)F)c4)C3(Cl)Cl)cc(F)c2Cl)c1F` [F1339, N-(3-Amino-2,6-difluorophenyl)-2-chloro-5-((1R,3R)-2,2-dichloro-3-(4-fluoro-3-(trifluoromethyl)phenyl)cyclopropane-1-carboxamido)-3-fluorobenzamide]: the pest or weed control at 50 µg/cm2 in assay [1] (setting [5]) and in assay [2] (setting [6]) was 50 to 100% in each case.
